Assays:
[1] = Reaction of CaF2 with macro DCPD in water paste, XRD; assay type: physicochemical; conditions: paste with water 1g/1 mL, 100% humidity, 37° C., 24 h
Procedure: In another test, mixtures containing a macro (median size 1.6 μm) DCPD and either the nano CaF2 or a macro CaF2 were mixed with water (1g/1 mL) and the pastes were left in 100% humidity at 37° C. for 24 h.

[2] = comparison value for crystalline CaF2; cited from earlier work
[3] = cited from earlier work
[4] = Solubility of salts in saturated spray drying solutions (Table 2); assay type: physicochemical
Excerpt: Other examples of the methods of the invention include formation of nano particles of other components. For example, compositions of solution to be spray dried for preparing nano particles of various calcium phosphate phases are set forth in Table 2. Because MCPM is highly soluble, the solution for the nano MCPM production can be prepared by dissolving an appropriate amount of MCPM or other sources of Ca (for example CaCO3) and P (for example H3PO4) in a solution of the desired concentration (Table 2). For the preparation of nano particles of other calcium phosphates, a volatile weak acid is used to facilitate solubilization of the calcium phosphate ions. […] In general, a minimum amount of the volatile weak acid, necessary to keep the calcium and phosphate ions in the solution, is used to facilitate the removal of the acid in the spray drying process.

[5] = acetic acid, high: DCPD/DCPA 996, OCP 995, ACP/TCP 985, HA 998 mmol/L
[6] = acetic acid, low: DCPD/DCPA 0, OCP 0.04, ACP/TCP 0, HA 0.122 mmol/L
[7] = carbonic acid, high: DCPD/DCPA 1000 mol/L, OCP 1018, ACP/TCP 1152, HA 1004 mmol/L
[8] = carbonic acid, low: DCPD/DCPA 0, OCP 0.04, ACP/TCP 0, HA 0.164 mmol/L

consumption of CaF2 by reaction with DCPD (XRD) [1]	[Ca] of saturated solution [4, 5] [mmol/L]	[P] of saturated solution [4, 5] [mmol/L]	pH of saturated solution [4, 5]	[Ca] of saturated solution [4, 6] [mmol/L]	[P] of saturated solution [4, 6] [mmol/L]	pH of saturated solution [4, 6]	[Ca] of saturated solution [4, 7] [mmol/L]	[P] of saturated solution [4, 7] [mmol/L]	pH of saturated solution [4, 7]	[Ca] of saturated solution [4, 8] [mmol/L]	[P] of saturated solution [4, 8] [mmol/L]	pH of saturated solution [4, 8]	Compound	Ksp [2]	IAP(HA) ([3]; comparison value for crystalline HA)	pIAP(HA) ([3]; comparison value for macro scale HA)
no reduction	–	–	–	–	–	–	–	–	–	–	–	–	[Ca+2].[F-].[F-] [crystalline CaF2, Calcium fluoride]	3.9×10^−11	–	–
–	132	79	3.9	0.1	0.06	6.8	14.2	8.54	4.6	0.1	0.06	6.8	Hydroxyapatite [HA]	–	1×10^−117	117

Reference: patent US7670579B2, “Nanostructured bioactive materials prepared by dual nozzle spray drying techniques” (American Dental Association Foundation, priority 2004, dated 2010)
